Assay results taken from US20100144655A1, “ORGANIC COMPOUNDS” (NOVARTIS AG, priority 2008, published 2010).

Key:
[1] = test system: dengue virus serotype 2 strain New Guinea C; experiment: Cell-based flavivirus immunodetection (CFI) assay; settings: for EC50: Dengue virus, A549, read-out: EC50 in the CFI assay for dengue virus
Excerpt: (§1) The CFI assay is based on quantitative immunodetection of the viral envelope protein, E, as a readout for viral load in target cells. In the CFI assay, the compounds of the invention show activity against dengue virus (e.g. dengue virus serotype 2). […] The HCV replicon contains an inserted firefly luciferase construct in its sequence. The genome of the HCV replicon is maintained as RNA species in a Huh-7 cell line (Krieger et al. Journal of Virology 2001; 75(10):4614-24). Measurement of luciferase activity is used as a surrogate marker for viremia in target cells.
50% effective concentration (EC50), is the concentration of the test compound that decreases the signal generated by the virus by 50%. It is calculated using nonlinear regression analysis using the variable slope sigmoidal dose-response curve, with commercial software such as Prism or ActivityBase.
A549 cells (e.g. available from ATCC #CCL-185) are trypsinized, counted and diluted to 2×10^5 cells/ml in Hams F-12 media supplemented with 2% fetal bovine serum and 1% penicillin/streptomycin. 2×10^4 cells are dispensed in clear 96-well tissue culture plate per well and placed at 37° C., 5% CO2 overnight. On the next day, the cells are infected with virus (dengue serotype 2, NGC strain, e.g. available from ATCC #VR-1584) at multiplicity of infection (MOI) of 0.3 in the presence of varied concentrations of test compounds for 1 hour at 37° C. and 5% CO2 in the same media. The medium containing virus and the compounds is removed, replaced with fresh medium containing only the test compounds and incubated at 37° C., 5% CO2 for another 48 hours. The cells are washed once with PBS and fixed with cold methanol for 10 min. After washing twice with PBS, the fixed cells are blocked with PBS containing 1% FBS and 0.05% Tween-20 for 1 hour at room temperature. The primary antibody solution (4G2) is then added at a concentration of 1:20 to 1:100 in PBS containing 1% FBS and 0.05% Tween-20 for 3 hours. The cells are then washed three times with PBS followed by one hour incubation with horseradish peroxidase (HRP)-conjugated anti-mouse IgG (Sigma, 1:2000 dilution). After washing three times with PBS, 50 μL of 3,3′,5,5′-tetramethylbenzidine (TMB) substrate solution (Sigma) is added to each well for two minutes. The reaction is stopped by addition 0.5M sulfuric acid. The plates are read at 450 nm absorbance for viral load quantification. After measurement, the cells are washed three times with PBS, followed by incubation with propidium iodide for 5 min. The plate is read in a Tecan Safire plate reader (excitation 537 nm, emission 617 nm) for cell number quantification. Dose response curves are plotted from the mean absorbance versus the log of the concentration of test compounds. The EC50 is calculated by nonlinear regression analysis. A positive control may be used, such as, for example, (2R,3R,4R,5R)-2-(4-amino-pyrrolo[2,3-d]pyrimidin-7-yl)-3-ethynyl-5-hydroxymethyl-tetrahydrofuran-3,4-diol.

HCV replicon = experiment: Cell-based HCV replicon assay (Huh-luc/neo-ET, luciferase); design: species or system Hepatitis C virus; settings: for EC50: Hepatitis C virus, Huh-7 cell line, luciferase readout
Excerpt: as §1
HVC replicon-containing cells, Huh-luc/neo-ET (e.g. as described in Krieger et al., Journal of Virology, 2001; 75(10):4614-24), are maintained in DMEM medium containing 2 mM […], 0.1 mM non-essential amino acid solution, 10% heat-inactivated fetal bovine serum and […] Geneticin®, G418 sulfate solution. The cells are kept between 20 to 80% confluency and are trypsinized with trypsin (0.05%)/EDTA solution. After trypsinization, cells are resuspended in supplemented DMEM phenol red-free medium (DMEM phenol red free supplemented with 2 mM L-glutamine, 0.1 mM non-essential amino acid solution, 10% of heat-inactivated fetal bovine serum and 1 mM sodium pyruvate) and pelleted by centrifugation at 420 g for 5 min. Cell density is calculated and diluted to 1×10^5 cells/mL with phenol red-free medium.
Two sets of plates are prepared, a white opaque 96-well plate for the luciferase reading and a 96-well clear plate for cytotoxicity measurement. Each well is seeded with 10,000 cells/well and incubated overnight at 37° C., 5% CO2. After incubation, the medium is aspirated and phenol red free medium supplemented with various concentrations of compounds is added and the plates further incubated for at 37° C., 5% CO2 for another 48 hours. A positive control may be used, such as, for example, (2R,3R,4R,5R)-2-(4-amino-pyrrolo[2,3-d]pyrimidin-7-yl)-3-ethynyl-5-hydroxymethyl-tetrahydrofuran-3,4-diol.
For determination of luciferase activity, the plates are removed from the incubator to allow them to equilibrate to room temperature for 30 minutes and luciferase activity is measured after the addition of 100 μL of the Britelite® (PerKin Elmer) prepared according to manufacturer's instructions.

TSV01 dengue virus 2 = experiment: Mouse model of dengue virus infection (viremia by plaque assay); format: in vivo, AG129 mice
Experimental: The compounds of the invention also show activity in vivo in a mouse model of dengue infection (Schul et al. Journal of Infectious Diseases 2007; 195:665-74). Briefly, AG129 mice (B&K Universal Ltd, Hull, UK) are housed in individually ventilated cages (TechniPlast, Italy) and used between 6 and 10 weeks of age. Mice are injected intraperitoneally with 0.6 ml TSV01 dengue virus 2 suspension. Blood samples are taken by retro orbital puncture under isoflurane anaesthesia. Blood samples are collected in tubes containing sodium citrate to a final concentration of 0.4%, and immediately centrifuged for 3 minutes at 6000 g to obtain plasma. 20 μL of plasma is diluted in 780 μL RPMI1640 medium and snap frozen in liquid nitrogen for plaque assay analysis. Remaining plasma is used for cytokine and NS1 protein level determination. Mice develop dengue viremia rising over several days, peaking on day 3 post-infection.
For testing of antiviral activity, a compound of the invention is dissolved in vehicle fluid, e.g. 10% ethanol, 30% PEG 300 and 60% D5W (5% dextrose in water); or 6N HCl (1.5 eq): 1N
NaOH (pH adjusted to 3.5): 100 mM citrate buffer pH 3.5 (0.9% v/v: 2.5% v/v: 96.6% v/v). Thirty six 6-10 week old AG129 mice are divided into six groups of six mice each. All mice are infected with dengue virus as described above (day 0). Group 1 is dosed by oral gavage of 200 μL/mouse with 13 mg/kg of a compound of the invention twice a day (once early in the morning and once late in the afternoon) for three consecutive days starting on day 0 (first dose just before dengue infection). […] Thus, Groups 1 and 2 are dosed with a compound of the invention at 13 mg/kg and 32 mg/kg respectively, and Groups 3 and 4 are dosed with another compound of the invention at 13 mg/kg and 32 mg/kg respectively. A positive control may be used, such as, e.g., (2R,3R,4R,5R)-2-(4-amino-pyrrolo[2,3-d]pyrimidin-7-yl)-3-ethynyl-5-hydroxymethyl-tetrahydrofuran-3,4-diol, dosed by oral gavage of 200 μL/mouse the same way as the previous groups. A further group is treated with only vehicle fluid.
On day 3 post-infection approximately 100 μL blood samples, anti-coagulated with sodium citrate, are taken from the mice by retro-orbital puncture under isoflurane anaesthesia. Plasma is obtained from each blood sample by centrifugation and snap frozen in liquid nitrogen for plaque assay analysis. The collected plasma samples are analyzed by plaque assay as described in Schul et al. Journal of Infectious Diseases 2007; 195:665-74. Cytokines are also analysed as described in Schul et al. Journal of Infectious Diseases 2007; 195:665-74. NS1 protein levels are analysed using a Platelia® kit (BioRad Laboratories). An anti-viral effect is indicated by a reduction in cytokine levels and/or NS1 protein levels.

[2] = Bioavailability (tests not described); format: in vivo; settings: salt forms
[3] = Storage properties (standard tests, not described); format: physicochemical; settings: salt forms
[4] = 32 mg/kg bid, oral gavage, 3 days, AG129 mice

Molecule	activity in the CFI assay (in words) [1]	EC50 [1]	activity in the HCV replicon assay (in words) (HCV replicon)	EC50 (HCV replicon)	reduction in viremia (TSV01 dengue virus 2; 25 mg/kg, mouse model of dengue virus infection)	activity in vivo in a mouse model of dengue virus infection (in words) (TSV01 dengue virus 2)	reduction in viremia (TSV01 dengue virus 2; [4])	bioavailability (in words) [2]	storage properties (in words) [3]
C#C[C@@]1(O)[C@H](OC(=O)C(C)C)[C@@H](COC(=O)C(C)C)O[C@H]1n1cc(C(N)=O)c2c(N)ncnc21 [Compound 10, Isobutyric acid (2R,3R,4R,5R)-5-(4-amino-5-carbamoyl-pyrrolo[2,3-d]pyrimidin-7-yl)-4-ethynyl-4-hydroxy-2-isobutyryloxymethyl-tetrahydro-furan-3-yl ester]	exhibit activity	~440 nM	exhibit activity	~35 nM	about 30 fold	exhibit activity			
C#C[C@@]1(O)[C@H](OC(=O)C(C)C)[C@@H](CO)O[C@H]1n1ccc2c(N)ncnc21 [Compound 4, Isobutyric acid (2R,3R,4R,5R)-5-(4-amino-pyrrolo[2,3-d]pyrimidin-7-yl)-4-ethynyl-4-hydroxy-2-hydroxymethyl-tetrahydro-furan-3-yl ester]	exhibit activity	~318 nM	exhibit activity			exhibit activity	about 113 fold		
C#C[C@@]1(O)[C@H](OC(=O)[C@@H](N)C(C)C)[C@@H](CO)O[C@H]1n1ccc2c(N)ncnc21 [Compound 3, (S)-2-Amino-3-methyl-butyric acid (2R,3R,4R,5R)-5-(4-amino-pyrrolo[2,3-d]pyrimidin-7-yl)-4-ethynyl-4-hydroxy-2-hydroxymethyl-tetrahydro-furan-3-yl ester]	exhibit activity	~860 nM	exhibit activity	~66 nM		exhibit activity	about 45 fold		
C#C[C@@]1(O)[C@H](O)[C@@H](CO)O[C@H]1n1ccc2c(N)ncnc21.C#C[C@@]1(O)[C@H](O)[C@@H](CO)O[C@H]1n1ccc2c(N)ncnc21.O=S(=O)(O)c1cccc2c(S(=O)(=O)O)cccc12 [(2R,3R,4R,5R)-2-(4-amino-pyrrolo[2,3-d]pyrimidin-7-yl)-3-ethynyl-5-hydroxymethyl-tetrahydrofuran-3,4-diol napadisylate 2:1 salt]								good bioavailability	good storage properties
(2R,3R,4R,5R)-2-(4-amino-pyrrolo[2,3-d]pyrimidin-7-yl)-3-ethynyl-5-hydroxymethyl-tetrahydrofuran-3,4-diol salicylate salt								good bioavailability	good storage properties
